Measured values reported in ChEMBL document CHEMBL4411307, “N,N'-diaryl-bishydrazones in a biphenyl platform: Broad spectrum antifungal agents” (Eur J Med Chem, 2019).
Converted amounts (≈) assume the structure as drawn. The source made the active and inactive calls. The calls are words filed in the database; no cut-off is given here.

How the values were obtained:
Candida albicans [1] = assay: Fungicidal activity against fluconazole/ITC-resistant Candida albicans ATCC 10231 assessed as reduction in fungal growth at 0.5 to 2 times MIC incubated for 24 hrs followed by replating on PDA plates measured after 48 hrs Time-Kill assay; type: functional, organism-based
[2] = Hemolytic activity in mouse RBC at 3.9 ug/ml after 1 hr relative to control; type: ADME, cell-based, Erythrocyte; conditions: red blood cells (erythrocytes), read-out: Activity
Candida albicans [3] = assay: Antifungal activity against fluconazole/ITC-resistant Candida albicans ATCC 10231 measured after 48 hrs by CLSI M27-A3 protocol based method; type: functional; conditions: ATCC 10231, 48 h
[4] = Hemolytic activity in mouse RBC at […] after 1 hr relative to control; type: ADME, cell-based, Erythrocyte; conditions: red blood cells (erythrocytes), read-out: Activity; further: tested at 0.48 µg/mL
Candida albicans [5] = assay: Antibiofilm activity against fluconazole/ITC-resistant Candida albicans ATCC 10231 assessed as reduction in sessile growth after 24 hrs by XTT assay; type: functional; conditions: ATCC 10231, 24 h
Aspergillus flavus = assay: Antifungal activity against Aspergillus flavus ATCC MYA-3631 measured after 48 hrs by CLSI M38-A2 protocol based method; type: functional; conditions: ATCC MYA-3631, 48 h
Candida albicans [6] = assay: Antifungal activity against fluconazole/ITC-resistant Candida albicans ATCC 64124 measured after 48 hrs by CLSI M27-A3 protocol based method; type: functional; conditions: ATCC 64124, 48 h
[7] = Hemolytic activity in mouse RBC at 7.8 ug/ml after 1 hr relative to control; type: ADME, cell-based, Erythrocyte; conditions: red blood cells (erythrocytes), read-out: Activity
Candida albicans [8] = assay: Antifungal activity against fluconazole/ITC-susceptible Candida albicans ATCC MYA-2310 measured after 48 hrs by CLSI M27-A3 protocol based method; type: functional; conditions: ATCC MYA-2310, 48 h
[9] = Hemolytic activity in mouse RBC at […] ug/ml after 1 hr relative to control; type: ADME, cell-based, Erythrocyte; conditions: red blood cells (erythrocytes), read-out: Activity
[10] = Hemolytic activity in mouse RBC at 31.3 ug/ml after 1 hr relative to control; type: ADME, cell-based, Erythrocyte; conditions: red blood cells (erythrocytes), read-out: Activity
Candida albicans [11] = assay: Antibiofilm activity against fluconazole/ITC-resistant Candida albicans ATCC 64124 assessed as reduction in sessile growth after 24 hrs by XTT assay; type: functional; conditions: ATCC 64124, 24 h
Aspergillus nidulans = assay: Antifungal activity against Aspergillus nidulans ATCC 38163 measured after 48 hrs by CLSI M38-A2 protocol based method; type: functional; conditions: ATCC 38163, 48 h
Candida parapsilosis = assay: Antifungal activity against Candida parapsilosis ATCC 22019 measured after 48 hrs by CLSI M27-A3 protocol based method; type: functional; conditions: Lodderomyces parapsilosis, ATCC 22019, 48 h
[12] = Hemolytic activity in mouse RBC at 1.95 ug/ml after 1 hr relative to control; type: ADME, cell-based, Erythrocyte; conditions: red blood cells (erythrocytes), read-out: Activity
Aspergillus terreus = assay: Antifungal activity against Aspergillus terreus ATCC MYA-3633 measured after 48 hrs by CLSI M38-A2 protocol based method; type: functional; conditions: ATCC MYA-3633, 48 h
Candida albicans [13] = assay: Antifungal activity against fluconazole/ITC-resistant Candida albicans ATCC MYA-1237 measured after 48 hrs by CLSI M27-A3 protocol based method; type: functional; conditions: ATCC MYA-1237, 48 h
Candida albicans [14] = assay: Antifungal activity against fluconazole/ITC-resistant Candida albicans ATCC 90819 measured after 48 hrs by CLSI M27-A3 protocol based method; type: functional; conditions: ATCC 90819, 48 h

With `C[C@@H](c1ncncc1F)[C@](O)(Cn1cncn1)c1ccc(F)cc1F` [VORICONAZOLE] the Activity (Candida albicans [1]) was “Active”, the hemolysis at 1 h, 3.9 ug/ml [2] was 7.5% and the MIC (Candida albicans [3]) was 0.975 µg/mL (≈ 2.79 µM). The hemolysis at 1 h, […] [4] was 8.7%, the MIC50 (Candida albicans [5]) was 16 µg/mL (≈ 45.8 µM) and the MIC90 (Candida albicans [5]) was > 32 µg/mL. For the same compound, the MIC (Aspergillus flavus) was > 31.3 µg/mL, the MIC (Candida albicans [6]) was 0.24 µg/mL (≈ 0.687 µM) and the hemolysis at 1 h, 7.8 ug/ml [7] was 11.4%. For the same compound, the MIC (Candida albicans [8]) was 0.12 µg/mL (≈ 0.344 µM), the hemolysis at 1 h, 15.6 ug/ml ([9]; at 15.6 µg/mL) was 2.8% and the hemolysis at 1 h, 0.975 ug/ml [9] was 10.3%. For the same compound, the hemolysis at 1 h, 31.3 ug/ml [10] was 83%, the MIC50 (Candida albicans [11]) was 16 µg/mL (≈ 45.8 µM) and the MIC90 (Candida albicans [11]) was > 32 µg/mL. For the same compound, the MIC (Aspergillus nidulans) was > 31.3 µg/mL, the MIC (Candida parapsilosis) was 1.95 µg/mL (≈ 5.58 µM) and the hemolysis at 1 h, 1.95 ug/ml [12] was 6.3%. The MIC (Aspergillus terreus) was > 31.3 µg/mL, the MIC (Candida albicans [13]) was 0.24 µg/mL (≈ 0.687 µM) and the MIC (Candida albicans [14]) was 0.12 µg/mL (≈ 0.344 µM).
